Data reported in ChEMBL document CHEMBL5137115, “Insights into the Metabolomic Capacity of Podaxis and Isolation of Podaxisterols A-D, Ergosterol Derivatives Carrying Nitrosyl Cyanide-Derived Modifications” (J Nat Prod, 2022).
Active and inactive are the calls of the source.

Experiments:
Format in all cases: functional, organism-based
Staphylococcus aureus [1] = assay: Antimicrobial activity against Staphylococcus aureus 134/94 assessed as inhibition zone at 0.5 mg/ml by […]
Enterococcus faecalis = assay: Antimicrobial activity against Enterococcus faecalis 1528 assessed as inhibition zone at 0.5 mg/ml by […]
Staphylococcus aureus [2] = assay: Antimicrobial activity against Staphylococcus aureus SG511 assessed as inhibition zone at 0.5 mg/ml by […]
Mycolicibacterium vaccae = assay: Antimicrobial activity against Mycobacterium vaccae 10670 assessed as inhibition zone at 0.5 mg/ml by […]
Bacillus subtilis = assay: Antimicrobial activity against Bacillus subtilis 6633 assessed as inhibition zone at 0.5 mg/ml by […]

Measured: Activity

CC(C)[C@@H](C)/C=C/[C@@H](C)[C@H]1CC[C@H]2C3=CC=C4C[C@@H](O)CC[C@]4(C)[C@H]3CC[C@]12C
active: all assays above
